Laboratory results: patent US20160220542A1, “SYNERGISTIC ACTIVITY OF MODULATORS OF THE NO METABOLISM AND OF NADPH OXIDASE IN THE SENSITISATION OF TUMOR CELLS” (Universitaetsklinikum Freiburg, priority 2010, published 2016)

Target: T1, NADPH oxidase (Rattus norvegicus, UniProt Q9WV87)
T1 construct: 12 500 208Fsrc3 cells (100 μl) received the stated concentrations of Cu SOD and 120 μM EUK-8; endogenous in cells; host or cells: 208Fsrc3 transformed rat fibroblasts
T1 sequence (Q9WV87 1-563): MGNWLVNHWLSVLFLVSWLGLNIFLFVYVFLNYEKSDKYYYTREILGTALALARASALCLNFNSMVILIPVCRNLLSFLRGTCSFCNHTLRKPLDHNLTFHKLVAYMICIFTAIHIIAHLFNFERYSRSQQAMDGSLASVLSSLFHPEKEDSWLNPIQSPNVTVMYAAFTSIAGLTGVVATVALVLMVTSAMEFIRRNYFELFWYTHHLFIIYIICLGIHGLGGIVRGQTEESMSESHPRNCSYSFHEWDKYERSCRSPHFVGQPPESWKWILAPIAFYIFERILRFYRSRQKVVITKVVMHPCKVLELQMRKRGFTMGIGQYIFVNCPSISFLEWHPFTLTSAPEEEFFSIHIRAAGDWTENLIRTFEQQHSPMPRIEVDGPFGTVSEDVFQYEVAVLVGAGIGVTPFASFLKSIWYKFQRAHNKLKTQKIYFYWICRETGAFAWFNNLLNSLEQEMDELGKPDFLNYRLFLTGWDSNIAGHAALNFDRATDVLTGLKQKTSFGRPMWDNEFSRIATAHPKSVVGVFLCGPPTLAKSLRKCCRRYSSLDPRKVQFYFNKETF
T1 sequence (Q62737 1-192 partner): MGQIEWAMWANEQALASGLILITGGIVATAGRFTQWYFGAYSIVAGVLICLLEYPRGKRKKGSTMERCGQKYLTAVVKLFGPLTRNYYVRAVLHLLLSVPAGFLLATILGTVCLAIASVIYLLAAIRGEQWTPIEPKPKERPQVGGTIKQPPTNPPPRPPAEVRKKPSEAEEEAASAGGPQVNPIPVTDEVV
Assay: superoxide anion concentration after inhibition of NADPH oxidase (Cu SOD bell curve shift)
Assay type: cell-based
Conditions: 208Fsrc3, 120 μM EUK-8, 5 hours
Description: 12 500 208Fsrc3 cells (100 μl) received the stated concentrations of Cu SOD and 120 μM EUK-8. In addition the stated concentrations of the NADPH oxidase inhibitor AEBSF (4-(2-Aminoethyl)-benzenesulfonyl fluoride) were added. Control preparations remained free of AEBSF. After 5 hours the percentages of apoptotic cells were determined in duplicate preparations.

## NCCc1ccc(S(=O)(=O)F)cc1 [AEBSF, 4-(2-Aminoethyl)-benzenesulfonyl fluoride]
  reduction in superoxide anion concentration on doubling of the inhibitor concentration: fourfold
